Assay results from patent publication US20260284009A1, “COMPOUNDS FOR NOS-RELATED CANCERS AND METHODS OF USE” (YISSUM RESEARCH DEVELOPMENT COMPANY OF THE HEBREW …, priority 2023, published 2026).

Tests used:
[1] = test system: SH-SY5Y cells; experiment: Western blots of 3-Ntyr, mTOR pathway components and Syp in SH-SY5Y cell lysate; type: cell-based, human; settings: western blot normalized for β-actin, 100 μM 7-NI or 20 nM siRNA
Protocol: In FIGS. 4A-4D, for quantitative analysis data, all individual data series are presented as biological replicates (n=4) for all groups. Data were normalized for β-actin and are presented as mean±SEM. Statistical significance was determined using a One-way ANOVA followed by Fisher's LSD multiple comparison post hoc test. *P<0.05 and **P<0.01.
FIG. 4A: Representative western blots of 3-Ntyr prepared from cell lysate of SH-SY5Y cells following administration of the control (“SH-SY5Y”—Series 1), 100 μM 7-NI (“SH-SY5Y +7-NI”—Series 2), or 20 nM siRNA (SEQ ID NO: 4) (“SH-SY5Y+si-nNOS”—Series 3).
FIG. 4B: Quantitative analysis of 3-Ntyr levels for the experiments of FIG. 4A.
FIG. 4C: Representative western blots of mTOR, p-mTOR, TSC-2, AKT, pAKT, RPS6, pRPS6, and Syp prepared from the cell lysate of SH-SY5Y cells following administration of the control (“SH-SY5Y”—Series 1), 100 μM 7-NI (“SH-SY5Y+7-NI”—Series 2), or 20 nM siRNA (SEQ ID NO: 4) (“SH-SY5Y+si-nNOS”—Series 3).
FIG. 4D: Quantitative analysis of mTOR, p-mTOR, TSC-2, AKT, pAKT, RPS6, pRPS6, and Syp levels for the experiments of FIG. 4C.

[2] = test system: SH-SY5Y cells; experiment: Confocal immunofluorescence of SH-SY5Y cells (3-Ntyr, Syp); type: cell-based, human; settings: 7-NI
Protocol: Human neuroblastoma (“NB”) SH-SY5Y cells were obtained from the American Type Culture Collection (ATCC) and maintained in Dulbecco's modified Eagle's medium (DMEM) and Ham's F-12 (1:1) supplemented with 10% fetal bovine serum, 2 mM L-glutamine, and 100 U/ml penicillin-G/[…] streptomycin in the humidified atmosphere (37° C., 5% CO2). Cells were plated onto 25 cm^2 and 75 cm^2 at a density of […] respectively for Western blotting (WB) and 1×10^5 for immunofluorescence. The SH-SY5Y cells were treated with 100 μM 7-nitroindazole (7-NI) for 24 hr. This concentration was confirmed in the dose-response experiment (FIG. 1) using an MTT viability assay.
Cells cultured on coverslips coated with Poly-D-Lysine were washed three times with PBS and fixed in 4% paraformaldehyde for 15-20 min at room temperature. The fixed cells were washed three times with PBS and incubated in the presence of permeabilization buffer (PBS containing 0.1% Triton X-100) for 5 min at room temperature. […]

[3] = test system: SH-SY5Y cells; experiment: Immunofluorescent staining of Syp and 3-Ntyr in SH-SY5Y cells; type: cell-based, human; settings: immunofluorescence, 100 μM 7-NI or 20 nM siRNA
Protocol: In FIGS. 5A-5C, for quantitative analysis each group consisted of three independent sets of experiments run in triplicate. Data are presented as mean±SEM. Statistical significance was determined using a One-way ANOVA followed by Fisher's LSD multiple comparison post hoc test. **P<0.01 and ***P<0.001.
FIG. 5A: Representative immunofluorescent images of SH-SY5Y cells stained for Syp and 3-Ntyr following administration of the control (“SH-SY5Y”), 100 μM 7-NI (“SH-SY5Y+7-NI”), or 20 nM siRNA (SEQ ID NO: 4) (“SH-SY5Y+si-nNOS”). The scale bar is 10 μm.
FIG. 5B: Quantitative analysis of fluorescent intensity of Syp for the experiments of FIG. 5A.
FIG. 5C: Quantitative analysis of fluorescent intensity of 3-Ntyr for the experiments of FIG. 5A.

[4] = test system: SH-SY5Y cells; experiment: Xenograft neuroblastoma model, SH-SY5Y cells in NSG mice; type: in vivo; settings: NSG male mice, 80 mg/kg 7-NI intraperitoneally three times per week, one month, vs control
Protocol: A xenograft neuroblastoma model was generated by injecting 4.0×10^6 SH-SY5Y cells (in a 50:50 mixture of PBS and matrigel basement membrane matrix) into the subcutaneous tissue in the flank of NOD SCID Gamma (NSG) male mice. Mice were 6-8 weeks old at time of injections. The mice were examined for 1 month.
Two treatment groups of mice were used (n=8), wherein one group was administered control, and the second group was administered 80 mg/kg of 7-NI administered intraperitoneally three times per week. Treatment started after five days from the injection with SH-SY5Y cells. After one month, all mice were euthanized, and tumors were harvested for ex vivo analysis and histology. Tumor volume was measured using calipers and was calculated as (length^2*width)/2

[5] = test system: CD70; experiment: CD70 expression level in U87-MG cells; type: cell-based, human; settings: both the lower and higher doses, compared to the control; not statistically significant (FIG. 13)
[6] = test system: nNOS; experiment: nNOS expression level in U87-MG cells; type: cell-based, human; settings: both the lower dose and higher dose, compared to the control treatment; not statistically significant (FIG. 15)
[7] = test system: iNOS; experiment: iNOS expression level in U87-MG cells; type: cell-based, human; settings: compared to the control treatment, not statistically significant (FIG. 14)

SMILES | expression levels of 3-nitrotyrosine (3-Ntyr) [1] | expression levels of AKT [1] | expression levels of RPS6 [1] | expression levels of TSC-2 [1] | expression levels of mTOR [1] | expression levels of p-mTOR [1] | expression levels of pAKT [1] | expression levels of pRPS6 [1] | expression levels of synaptophysin (Syp) [1] | fluorescence intensity of 3-Ntyr [2] | fluorescence intensity of Syp [2] | 3-Ntyr expression levels (fluorescent intensity) [3] | Syp expression levels (fluorescent intensity) [3] | average tumor size [4] | expression level of CD70 [5] | expression level of nNOS [6] | expression level of iNOS ([7]; higher dose) | expression level of iNOS ([7]; lower dose)
O=[N+]([O-])c1cccc2cn[nH]c12 [7-NI, 7-nitroindazole] | significant decrease | significant decrease | significant decrease | significant decrease | significant decrease | significant decrease | significant decrease | significant decrease | significant decrease | significantly decreased | significantly decreased | significant decrease | significant decrease | significantly smaller |  |  |  | 
CC(=N)NCCCC[C@H](N)C(=O)O [L-NIL, N^6-(1-iminoethyl)-L-lysine] |  |  |  |  |  |  |  |  |  |  |  |  |  |  | slightly decreased | reduced | unchanged | slightly elevated
